US20100068208A1, “Degranulation inhibitor” (priority 2005, published 2010)

Tests used:
Type in all cases: cell-based
[1] = system: RBL-2H3; experiment: Degranulation promoting effect in RBL2H3 (β-hexosaminidase release)
Protocol: (§1) RBL-2H3 (hereinafter RBL2H3) was incubated in α-MEM (Invitrogen) supplemented with 10% fetal calf serum. Vector plasmid pcDNA3.1 for animal cell expression, in which the nucleotide sequence containing the initiation codon to the termination codon of human TGR12 (DNA having the nucleotide sequence represented by SEQ ID NO: 32) was incorporated, was stably expressed in RBL-2H3 to establish human TGR12-expressed RBL-2H3 cell line (hereinafter RBL2H3-TGR12). RBL2H3-TGR12 was incubated in α-MEM (Invitrogen) supplemented with 10% fetal calf serum and 200 μg/mL of Geneticin.
The degranulation promoting effect was determined as follows. RBL2H3 and RBL2H3-TGR12 were plated into a 96-well plate at a density of 40,000 cells/well and incubated overnight. Afterward the medium was discarded. […] The β-hexosaminidase activity in the supernatant for the degranulation assay was measured as follows to determine the degree of degranulation. The supernatant was dispensed into a 96-well plate and a 5-fold volume of 0.1M citrate (pH 4.5)/1 mM 4-methyl umbelliferyl-2-acetamido-2-deoxy-beta-D-glucopyranoside (Wako Pure Chemical) based on the volume of the supernatant was added thereto, followed by incubation at 37° C. for an hour. Subsequently, a 0.1-fold volume of 0.2 M glycine/NaCO3 (pH 10.7) based on the volume of the reaction solution was added to stop the reaction and the fluorescence was measured using Fusion-α (Perkin Elmer). For the β-hexosaminidase activity, the activity in the supernatant, which was obtained by likewise plating RBL2H3 and RBL2H3-TGR12GFP onto the plate, detaching the same with trypsin/EDTA, freeze-thawing 4 times and then centrifugation, was made the total β-hexosaminidase activity in LAD 2. The degree of degranulation was shown by a ratio of the β-hexosaminidase activity in the LAD 2 supernatant to the total β-hexosaminidase activity.

[2] = system: human mast cell line LAD 2; experiment: Expression of TNF-α, CCL-2 or CCL-5 mRNA in LAD 2 (TaqMan PCR); settings: 1 μM
Protocol: Human mast cell line LAD 2 was cultured in StemPro-34 medium (Invitrogen) supplemented with 100 ng/mL of stem cell factor (Immuno-Biological Laboratories Co., Ltd.). […] A 750 μL aliquot was inoculated on a 24-well plate, which was then allowed to stand in a CO2 incubator at 37° C. for 30 minutes. […] The assay was performed for the respective reaction conditions in n=3. The plate was ice-chilled 0.5, 2, 8 and 24 hours after to stop the activation of LAD 2. After centrifugation at 300×g for 5 minutes, total RNA was extracted from the precipitated cells using RNeasy Mini Kit (Qiagen) according to the protocol attached. Further in the experiments where expression levels upon stimulation by various TGR12 ligands were analyzed, LAD 2 was centrifuged at 300×g for 5 minutes and the cells precipitated were counted and suspended in the medium at 1.33×10^6 cells/mL. A 750 μL aliquot was inoculated on a 24-well plate, which was allowed to stand in a CO2 incubator at 37° C. for 30 minutes. […] The assay was performed for the respective reaction conditions in n=3. Two hours after, the plate was ice-chilled to stop the activation of LAD 2. After centrifugation at 300×g for 5 minutes, total RNA was extracted from the precipitated cells using RNeasy Mini Kit (Qiagen) according to the protocol attached. The total RNA obtained as described above was concentrated using ethachinmate according to the protocol attached and dissolved in RNase-free H2O, Next, using the solution corresponding to […] of total RNA, reverse transcription was performed by the following procedure using SuperScript II reverse transcriptase (Invitrogen) to synthesize single stranded cDNA. To the total RNA solution, 0.1 μg of random primer (Invitrogen) and 1 μL of 10 mM dNTP (Invitrogen) were added and then RNase-free H2O was added to make the whole volume 12 μL. The mixture was then incubated at 70° C. for 10 minutes and ice-cooled for a minute. After 4 μL of 5× First-Strand Buffer (attached to SuperScript II reverse transcriptase), 2 μL of 0.1M DTT (attached to SuperScript II reverse transcriptase), 1 μL of RNaseOUT (Invitrogen) and 1 μL of SuperScript II reverse transcriptase were added, the mixture was incubated at 42° C. for 50 minutes, then at 70° C. for 15 minutes and ice-cooled for 5 minutes. The thus obtained cDNA was purified using ethachinmate in accordance with the protocol attached and dissolved in Tris-EDTA buffer (Fluka).
In TaqMan PCR below, hTNFalpha-tF (SEQ ID NO: 33) and hTNFalpha-tR (SEQ ID NO: 34) were used as primers for human TNF-α quantification, hTNFalpha-tP (SEQ ID NO: 35) as a probe and hTNFalpha-standard (SEQ ID NO: 36) as a standard. For human CCL-5 quantification, hCCL5-tF (SEQ ID NO: 37) and hCCL5-tR (SEQ ID NO: 38) were used as primers, hCCL5-tP (SEQ ID NO: 39) as a probe and hCCL5 standard (SEQ ID NO: 40) as a standard. For human CCL-2 quantification, hCCL2-tF (SEQ ID NO: 41) and hCCL2-tR (SEQ ID NO: 42) were used as primers, hCCL2-tP (SEQ ID NO: 43) as a probe and hCCL2 standard (SEQ ID NO: 44) as a standard.
TaqMan PCR was performed in n=2 for each sample in a liquid volume of 15 μl using 12.5 ng of total RNA as a template. The reaction solution was composed of 900 nM primer, 250 nM probe and ½ volume of TaqMan Universal PCR Master Mix (Applied Biosystems). The reaction and analysis were performed by ABI PRISM 7900HT Sequence Detection System (Applied Biosystems). After keeping warm at 50° C. for 2 minutes and then at 95° C. for 10 minutes, the reaction cycle was set in one cycle to include 95° C. for 15 seconds and 60° C. for 1 minute and repeating the cycle 40 times.

[3] = system: RBL-2H3; experiment: Intracellular calcium increasing activity in RBL2H3 (FLIPR); set-up: unit not given here
Protocol: as §1
The intracellular calcium increasing activity was assayed as follows. RBL2H3 and RBL2H3-TGR12 were plated in a 96-well plate at a density of 40,000 cells/well and incubated overnight. The medium was then discarded and 100 μL/well of 4 μM Fluo3-AM (Dojin Kagaku)-containing assay buffer [Hank's Balanced Salt Solution (Invitrogen), 20 mM HEPES (Dojin Kagaku) and 2.5 mM Probenecid (Sigma)] was added. The mixture was allowed to stand for an hour at 37° C. Various TGR12 (Peptide Institute, Inc.) or calcium ionophore A23187 (Wako Pure Chemical) was diluted in 0.05% CHAPS-containing assay buffer. After the cells were washed with the assay buffer, fluorescence emitted with changes in intracellular calcium was measured using FLIPR (Molecular Device). A sample, 50 μL, was added at a rate of 50 μL/sec. 10 seconds after initiation of the assay. Fluorescence was measured every 1 second during the first 60 seconds and every 6 seconds during the next 120 seconds. The highest fluorescence intensity during 3 minutes was made the maximum activity under the stimulation conditions, which was taken as an average of 3 wells. The EC50 values were calculated using Graphpad PRISM 4 (Graphpad Software).

[4] = time course, 0.5 hours after the stimulation
[5] = time course, 2 hours after the stimulation
[6] = time course, 8 hours after the stimulation
[7] = time course, 24 hours after the stimulation
[8] = various TGR12 ligands experiment, two hours after stimulation

SMILES: CSCC[C@H](NC(=O)[C@H](CC(C)C)NC(=O)CNC(=O)[C@H](Cc1ccccc1)NC(=O)[C@H](Cc1ccccc1)NC(=O)[C@H](CCC(N)=O)NC(=O)[C@H](CCC(N)=O)NC(=O)[C@@H]1CCCN1C(=O)[C@H](CCCCN)NC(=O)[C@@H]1CCCN1C(=O)[C@@H](N)CCCNC(=N)N)C(N)=O [substance P]
- degranulation (β-hexosaminidase in supernatant to total) ([1]; RBL2H3, 10 nM): 8.8%
- degranulation (β-hexosaminidase in supernatant to total) ([1]; RBL2H3, 30 nM): 8.9%
- degranulation (β-hexosaminidase in supernatant to total) ([1]; RBL2H3, 100 nM): 8.9%
- degranulation (β-hexosaminidase in supernatant to total) ([1]; RBL2H3, 300 nM): 8.5%
- degranulation (β-hexosaminidase in supernatant to total) ([1]; RBL2H3, 1 μM): 8.4%
- degranulation (β-hexosaminidase in supernatant to total) ([1]; RBL2H3, 3 μM): 7.9%
- expression level of CCL-5 in LAD 2 [2, 4]: 38107 copies
- expression level of TNF-α in LAD 2 [2, 4]: 56065 copies
- expression level of CCL-5 in LAD 2 [2, 5]: 88872 copies
- expression level of TNF-α in LAD 2 [2, 5]: 1346293 copies
- expression level of CCL-5 in LAD 2 [2, 6]: 69921 copies
- expression level of TNF-α in LAD 2 [2, 6]: 54313 copies
- expression level of CCL-5 in LAD 2 [2, 7]: 53605 copies
- expression level of TNF-α in LAD 2 [2, 7]: 4332 copies
- expression level of CCL-2 in LAD 2 [2, 8]: 2694837 copies
- expression level of CCL-5 in LAD 2 [2, 8]: 47117 copies
- expression level of TNF-α in LAD 2 [2, 8]: 173462 copies
- maximum activity in the calcium increasing effect ([3]; RBL2H3, 1 nM): 44
- maximum activity in the calcium increasing effect ([3]; RBL2H3, 10 nM): 51
- maximum activity in the calcium increasing effect ([3]; RBL2H3, 100 nM): 50
- maximum activity in the calcium increasing effect ([3]; RBL2H3, 1 μM): 95
- maximum activity in the calcium increasing effect ([3]; RBL2H3, 10 μM): 41
